Data on one compound can be found in article PMC5218480 (PLoS ONE, 2017).

For this assay, the system named is MV-4-11 cells. The assay can be described thus: Gene expression microarray analysis (Affymetrix PrimeView) and GSEA. Details: RFU PODN (11730768_x_at) / Fold change /veh PODN (11730768_x_at) / RFU LINC00158 (11744669_a_at) / Fold change /veh LINC00158 (11744669_a_at) / RFU DUSP10 (11751237_a_at) / Fold change /veh DUSP10 (11751237_a_at) / RFU ID3 (11757404_x_at) / Fold change /veh ID3 (11757404_x_at) / RFU PLEKHG5 (11737974_s_at) / Fold change /veh PLEKHG5 (11737974_s_at) / RFU LRRC4B (11730491_at) / Fold change /veh LRRC4B (11730491_at) / RFU GIMAP4 (11747438_a_at) / Fold change /veh GIMAP4 (11747438_a_at) / RFU KRT8 (11758183_x_at) / Fold change /veh KRT8 (11758183_x_at) / RFU CNN1 (11734310_a_at) / Fold change /veh CNN1 (11734310_a_at) / RFU VPS37D (11726825_at) / Fold change /veh VPS37D (11726825_at) / RFU C10orf10 (11716522_x_at) / Fold change /veh C10orf10 (11716522_x_at) / RFU KIR2DL2 /// KIR2DL4 /// KIR2DL5A /// KIR2DL5B /// KIR2DS1 /// KIR2DS2 /// KIR2DS3 /// KIR2DS4 /// KIR3DL3 /// KIR3DL3 /// KIR3DS1 (11738374_at) / Fold change /veh KIR2DL2 /// KIR2DL4 /// KIR2DL5A /// KIR2DL5B /// KIR2DS1 /// KIR2DS2 /// KIR2DS3 /// KIR2DS4 /// KIR3DL3 /// KIR3DL3 /// KIR3DS1 (11738374_at) / RFU C1QL1 (11718748_at) / Fold change /veh C1QL1 (11718748_at) / RFU TMPRSS4 (11747572_a_at) / Fold change /veh TMPRSS4 (11747572_a_at) / RFU HAMP (11756126_x_at) / Fold change /veh HAMP (11756126_x_at) / RFU RNFT2 (11725882_a_at) / Fold change /veh RNFT2 (11725882_a_at) / RFU NR4A2 (11747474_a_at) / Fold change /veh NR4A2 (11747474_a_at) / RFU ABCC12 (11746883_a_at) / Fold change /veh ABCC12 (11746883_a_at) / RFU TMEM136 (11760407_x_at) / Fold change /veh TMEM136 (11760407_x_at) / RFU CLDN22 /// WWC2 (11732394_at) / Fold change /veh CLDN22 /// WWC2 (11732394_at) / RFU HLA-DPB1 (11760878_x_at) / Fold change /veh HLA-DPB1 (11760878_x_at) / RFU SPINT1 (11716480_a_at) / Fold change /veh SPINT1 (11716480_a_at) / RFU GAP43 (11754022_s_at) / Fold change /veh GAP43 (11754022_s_at) / RFU A4GNT (11735810_at) / Fold change /veh A4GNT (11735810_at) / RFU PRB3 (11715151_x_at) / Fold change /veh PRB3 (11715151_x_at) / RFU TUBB4B (11761932_at) / Fold change /veh TUBB4B (11761932_at) / RFU CAPN14 (11732068_a_at) / Fold change /veh CAPN14 (11732068_a_at) / RFU TMCC2 (11721928_a_at) / Fold change /veh TMCC2 (11721928_a_at) / RFU IRGQ (11745062_a_at) / Fold change /veh IRGQ (11745062_a_at) / RFU FAM174B (11720279_a_at) / Fold change /veh FAM174B (11720279_a_at) / RFU TMPRSS4 (11748680_a_at) / Fold change /veh TMPRSS4 (11748680_a_at) / RFU FAM212B (11763350_a_at) / Fold change /veh FAM212B (11763350_a_at) / RFU PLEKHG5 (11743358_a_at) / Fold change /veh PLEKHG5 (11743358_a_at) / RFU ZSCAN30 (11745921_a_at) / Fold change /veh ZSCAN30 (11745921_a_at) / RFU CMKLR1 (11741424_a_at) / Fold change /veh CMKLR1 (11741424_a_at) / RFU LOC101060620 /// MAPK8IP1 (11723275_at) / Fold change /veh LOC101060620 /// MAPK8IP1 (11723275_at) / RFU SPTSSB (11747773_x_at) / Fold change /veh SPTSSB (11747773_x_at) / RFU PRSS12 (11739890_at) / Fold change /veh PRSS12 (11739890_at) / RFU BIN1 (11741810_x_at) / Fold change /veh BIN1 (11741810_x_at) / RFU WNT11 (11732464_a_at) / Fold change /veh WNT11 (11732464_a_at) / RFU C10orf10 (11716521_a_at) / Fold change /veh C10orf10 (11716521_a_at) / RFU C5orf56 (11738089_at) / Fold change /veh C5orf56 (11738089_at) / RFU CYB561 (11721691_x_at) / Fold change /veh CYB561 (11721691_x_at) / RFU ANKRD19P (11752326_a_at) / Fold change /veh ANKRD19P (11752326_a_at) / RFU OR2T12 /// OR2T33 /// OR2T8 (11738714_s_at) / Fold change /veh OR2T12 /// OR2T33 /// OR2T8 (11738714_s_at) / RFU VCAN (11748164_a_at) / Fold change /veh VCAN (11748164_a_at) / RFU JSRP1 (11732532_at) / Fold change /veh JSRP1 (11732532_at) / RFU KRTAP10-11 (11738290_x_at) / Fold change /veh KRTAP10-11 (11738290_x_at) / RFU MYO3A (11730013_a_at) / Fold change /veh MYO3A (11730013_a_at) / RFU EBF3 (11725865_a_at) / Fold change /veh EBF3 (11725865_a_at) / RFU CAMK2N1 (11719241_x_at) / Fold change /veh CAMK2N1 (11719241_x_at) / RFU C5orf56 (11738088_a_at) / Fold change /veh C5orf56 (11738088_a_at) / RFU OLFML3 (11715873_a_at) / Fold change /veh OLFML3 (11715873_a_at) / RFU LOC100653217 /// NTM (11731650_a_at) / Fold change /veh LOC100653217 /// NTM (11731650_a_at) / RFU MAPK11 (11762145_a_at) / Fold change /veh MAPK11 (11762145_a_at) / RFU FIZ1 (11724087_x_at) / Fold change /veh FIZ1 (11724087_x_at) / RFU OASL (11726364_x_at) / Fold change /veh OASL (11726364_x_at) / RFU SOX15 (11748057_x_at) / Fold change /veh SOX15 (11748057_x_at) / RFU CD79A (11719716_a_at) / Fold change /veh CD79A (11719716_a_at) / RFU HIST1H1D (11736915_at) / Fold change /veh HIST1H1D (11736915_at) / RFU CASKIN2 (11723855_a_at) / Fold change /veh CASKIN2 (11723855_a_at) / RFU LOC730098 (11760151_x_at) / Fold change /veh LOC730098 (11760151_x_at) / RFU OR4N2 (11742367_at) / Fold change /veh OR4N2 (11742367_at) / RFU PRRT2 (11749266_a_at) / Fold change /veh PRRT2 (11749266_a_at) / RFU SNX32 (11753110_a_at) / Fold change /veh SNX32 (11753110_a_at) / RFU CDHR5 (11726645_a_at) / Fold change /veh CDHR5 (11726645_a_at) / RFU RCAN1 (11760418_a_at) / Fold change /veh RCAN1 (11760418_a_at) / RFU FAM167A (11723789_a_at) / Fold change /veh FAM167A (11723789_a_at) / RFU FAM26E (11764081_at) / Fold change /veh FAM26E (11764081_at) / RFU ISYNA1 (11749810_s_at) / Fold change /veh ISYNA1 (11749810_s_at) / RFU ACY1 (11761880_at) / Fold change /veh ACY1 (11761880_at) / RFU 11764098_at / Fold change /veh 11764098_at / RFU SAMD14 (11745864_x_at) / Fold change /veh SAMD14 (11745864_x_at) / RFU NPB (11741838_a_at) / Fold change /veh NPB (11741838_a_at) / RFU TMPRSS6 (11731388_a_at) / Fold change /veh TMPRSS6 (11731388_a_at) / RFU KRTAP10-2 (11738614_at) / Fold change /veh KRTAP10-2 (11738614_at) / RFU ARHGAP8 /// PRR5-ARHGAP8 (11727945_x_at) / Fold change /veh ARHGAP8 /// PRR5-ARHGAP8 (11727945_x_at) / RFU KRTAP5-7 /// NADSYN1 (11734609_at) / Fold change /veh KRTAP5-7 /// NADSYN1 (11734609_at) / RFU RASL12 (11751679_a_at) / Fold change /veh RASL12 (11751679_a_at) / RFU CDKN2B (11736163_a_at) / Fold change /veh CDKN2B (11736163_a_at) / RFU PRF1 (11729649_at) / Fold change /veh PRF1 (11729649_at) / RFU, ZNF638 /// ZNF638-IT1 / Fold change vs veh, ZNF638 /// ZNF638-IT1 / RFU, PANK3 / Fold change vs veh, PANK3 / RFU, SH3YL1 / Fold change vs veh, SH3YL1 / RFU, ZEB2 / Fold change vs veh, ZEB2 / RFU, NRIP1 / Fold change vs veh, NRIP1 / RFU, PTTG1IP / Fold change vs veh, PTTG1IP / RFU, CAPN2 / Fold change vs veh, CAPN2 / RFU, MED14 / Fold change vs veh, MED14 / RFU, SNORA58 / Fold change vs veh, SNORA58 / RFU, C1orf63 / Fold change vs veh, C1orf63 / RFU, LRRFIP1 / Fold change vs veh, LRRFIP1 / RFU, NDUFAF7 / Fold change vs veh, NDUFAF7 / RFU, SLC12A2 / Fold change vs veh, SLC12A2 / RFU, IBTK / Fold change vs veh, IBTK / RFU, ESF1 / Fold change vs veh, ESF1 / Fold change vs veh, TMEM50B / RFU, TAOK1 / Fold change vs veh, TAOK1 / RFU, ACBD3 / Fold change vs veh, ACBD3 / RFU, TMA16 / Fold change vs veh, TMA16 / RFU, RWDD3 / Fold change vs veh, RWDD3 / RFU, BCAT1 / Fold change vs veh, BCAT1 / RFU, EDEM3 / Fold change vs veh, EDEM3 / RFU, TMEM33 / Fold change vs veh, TMEM33 / RFU, WDR75 / Fold change vs veh, WDR75 / RFU, AHCTF1 / Fold change vs veh, AHCTF1 / RFU, TFRC / Fold change vs veh, TFRC / RFU, ZDHHC17 / Fold change vs veh, ZDHHC17 / RFU, NOM1 / Fold change vs veh, NOM1 / RFU, ARL8B / Fold change vs veh, ARL8B / RFU, ZBTB11 / Fold change vs veh, ZBTB11 / RFU, TAMM41 / Fold change vs veh, TAMM41 / RFU, KIAA1704 /// LOC100996395 / Fold change vs veh, KIAA1704 /// LOC100996395 / RFU, ING1 / Fold change vs veh, ING1 / RFU, TRMT61B / Fold change vs veh, TRMT61B / RFU, FUBP3 / Fold change vs veh, FUBP3 / RFU, TP53 / Fold change vs veh, TP53 / RFU, TNKS2 / Fold change vs veh, TNKS2 / RFU, ZFP14 / Fold change vs veh, ZFP14 / RFU, ACTR2 / Fold change vs veh, ACTR2 / RFU, PPP3R1 / Fold change vs veh, PPP3R1 / RFU, PIK3R1 / Fold change vs veh, PIK3R1 / RFU, HNRNPA1 / Fold change vs veh, HNRNPA1 / RFU, RNF170 / Fold change vs veh, RNF170 / RFU, ZNF28 / Fold change vs veh, ZNF28 / RFU, RNGTT / Fold change vs veh, RNGTT / RFU, OGT / Fold change vs veh, OGT / RFU, BRD1 / Fold change vs veh, BRD1 / RFU, MARS / Fold change vs veh, MARS / RFU, ZNF655 / Fold change vs veh, ZNF655 / RFU, FAHD1 / Fold change vs veh, FAHD1 / RFU, BDP1 / Fold change vs veh, BDP1 / RFU, LRRCC1 / Fold change vs veh, LRRCC1 / RFU, ARID1A / Fold change vs veh, ARID1A / RFU, ZNF146 / Fold change vs veh, ZNF146 / RFU, ZNF330 / Fold change vs veh, ZNF330 / RFU, GPN3 / Fold change vs veh, GPN3 / RFU, C9orf123 / Fold change vs veh, C9orf123 / RFU, N4BP2L2 / Fold change vs veh, N4BP2L2 / RFU, ARFIP1 / Fold change vs veh, ARFIP1 / RFU, FAM179B / Fold change vs veh, FAM179B / RFU, BCL10 / Fold change vs veh, BCL10 / RFU, UHRF1BP1L / Fold change vs veh, UHRF1BP1L / RFU, BET1 / Fold change vs veh, BET1 / RFU, CNOT2 / Fold change vs veh, CNOT2 / RFU, ZNF268 / Fold change vs veh, ZNF268 / Fold change vs veh, ZNF507 / RFU, DGCR2 / Fold change vs veh, DGCR2 / RFU, WDSUB1 / Fold change vs veh, WDSUB1 / Fold change vs veh, HSP90B1 /// MIR3652 / RFU, ADSS / Fold change vs veh, ADSS / RFU, GK / Fold change vs veh, GK / RFU, ZNF148 / Fold change vs veh, ZNF148 / RFU, TAF9 / Fold change vs veh, TAF9 / RFU, SLC1A5 / Fold change vs veh, SLC1A5 / RFU, SLMO2 / Fold change vs veh, SLMO2 / RFU, ABCC4 / Fold change vs veh, ABCC4 / RFU, LOC101060439 /// RAP1B / Fold change vs veh, LOC101060439 /// RAP1B / RFU, RFX7 / Fold change vs veh, RFX7 / RFU, GTPBP10 / Fold change vs veh, GTPBP10 / RFU, CNEP1R1 / Fold change vs veh, CNEP1R1 / RFU, BIVM-ERCC5 /// ERCC5 / Fold change vs veh, BIVM-ERCC5 /// ERCC5 / RFU, ILF3 / Fold change vs veh, ILF3 / RFU 11762660_at / Fold change /veh 11762660_at / RFU VCAN (11757783_s_at) / Fold change /veh VCAN (11757783_s_at) / RFU DDX43 (11728927_at) / Fold change /veh DDX43 (11728927_at) / RFU KRT8 (11758188_x_at) / Fold change /veh KRT8 (11758188_x_at) / RFU NKD1 (11759106_at) / Fold change /veh NKD1 (11759106_at) / RFU SRD5A1 (11742802_a_at) / Fold change /veh SRD5A1 (11742802_a_at) / RFU TPSAB1 /// TPSB2 (11721975_s_at) / Fold change /veh TPSAB1 /// TPSB2 (11721975_s_at) / RFU GSTM3 (11746129_a_at) / Fold change /veh GSTM3 (11746129_a_at) / RFU IL23R (11737362_x_at) / Fold change /veh IL23R (11737362_x_at) / RFU TMEM51 (11727254_a_at) / Fold change /veh TMEM51 (11727254_a_at) / RFU PIWIL2 (11732686_x_at) / Fold change /veh PIWIL2 (11732686_x_at) / RFU ORM1 (11744905_x_at) / Fold change /veh ORM1 (11744905_x_at) / RFU CCDC152 (11743942_at) / Fold change /veh CCDC152 (11743942_at) / RFU ECM1 (11717891_a_at) / Fold change /veh ECM1 (11717891_a_at) / RFU IL23R (11748794_a_at) / Fold change /veh IL23R (11748794_a_at) / RFU TNFAIP8L3 (11732012_x_at) / Fold change /veh TNFAIP8L3 (11732012_x_at) / RFU MBOAT4 (11741988_at) / Fold change /veh MBOAT4 (11741988_at) / RFU 11764193_at / Fold change /veh 11764193_at / RFU TMEM53 (11763286_at) / Fold change /veh TMEM53 (11763286_at) / RFU MAGEB2 (11727129_at) / Fold change /veh MAGEB2 (11727129_at) / RFU TMEM200A (11744735_a_at) / Fold change /veh TMEM200A (11744735_a_at) / RFU CCDC152 (11751479_a_at) / Fold change /veh CCDC152 (11751479_a_at) / RFU FAM211A (11726209_a_at) / Fold change /veh FAM211A (11726209_a_at) / RFU RGS16 (11746705_a_at) / Fold change /veh RGS16 (11746705_a_at) / RFU VCAN (11755009_s_at) / Fold change /veh VCAN (11755009_s_at) / RFU RHOB (11743442_s_at) / Fold change /veh RHOB (11743442_s_at) / RFU RGS16 (11720943_a_at) / Fold change /veh RGS16 (11720943_a_at) / RFU RGS16 (11720944_at) / Fold change /veh RGS16 (11720944_at) / RFU, VPS4B / Fold change vs veh, VPS4B / RFU, CREB1 / Fold change vs veh, CREB1 / RFU, DNAJC13 / Fold change vs veh, DNAJC13 / RFU, GNAQ / Fold change vs veh, GNAQ / RFU, CDK5R1 / Fold change vs veh, CDK5R1 / RFU, ZRANB3 / Fold change vs veh, ZRANB3 / RFU, CUL4A / Fold change vs veh, CUL4A / RFU, CCNY / Fold change vs veh, CCNY / RFU, UFL1 / Fold change vs veh, UFL1 / RFU, COG3 / Fold change vs veh, COG3 / RFU, DIAPH2 / Fold change vs veh, DIAPH2 / RFU, SKA2 / Fold change vs veh, SKA2 / RFU, AFF3 / Fold change vs veh, AFF3 / RFU, LMF1 / Fold change vs veh, LMF1 / RFU, IPO11 / Fold change vs veh, IPO11 / RFU, DFFB / Fold change vs veh, DFFB / RFU, FOXP1 / Fold change vs veh, FOXP1 / RFU, CARD8 / Fold change vs veh, CARD8 / RFU, STRN3 / Fold change vs veh, STRN3 / RFU, ADK / Fold change vs veh, ADK / RFU, RASSF2 / Fold change vs veh, RASSF2 / RFU, WIPF1 / Fold change vs veh, WIPF1 / RFU, LARP1B / Fold change vs veh, LARP1B / RFU, RASA1 / Fold change vs veh, RASA1 / RFU, RB1 / Fold change vs veh, RB1 / RFU, PPFIA1 / Fold change vs veh, PPFIA1 / RFU, MAT2A / Fold change vs veh, MAT2A / RFU, CCT5 / Fold change vs veh, CCT5 / RFU, WDR92 / Fold change vs veh, WDR92 / RFU, CUX1 / Fold change vs veh, CUX1 / RFU, TTC7A / Fold change vs veh, TTC7A / RFU, TMEM135 / Fold change vs veh, TMEM135 / RFU, DEPTOR / Fold change vs veh, DEPTOR / RFU, CPM / Fold change vs veh, CPM / RFU, DNAJB6 / Fold change vs veh, DNAJB6 / RFU, CACNA2D3 / Fold change vs veh, CACNA2D3 / RFU, DTX4 / Fold change vs veh, DTX4 / RFU, TFCP2 / Fold change vs veh, TFCP2 / RFU, GMCL1 /// GMCL1P1 / Fold change vs veh, GMCL1 /// GMCL1P1 / RFU, AEBP2 / Fold change vs veh, AEBP2 / RFU, SNHG1 /// SNORD22 /// SNORD25 /// SNORD26 /// SNORD27 /// SNORD28 /// SNORD29 /// SNORD31 / Fold change vs veh, SNHG1 /// SNORD22 /// SNORD25 /// SNORD26 /// SNORD27 /// SNORD28 /// SNORD29 /// SNORD31 / Fold change (Aza/veh), C12orf56 (ProbeSet 11735607_a_at) / Fold change (ACY-1035/veh), C12orf56 (ProbeSet 11735607_a_at) / Fold change (Aza/veh), FGFR1OP (ProbeSet 11751329_s_at) / Fold change (ACY-1035/veh), FGFR1OP (ProbeSet 11751329_s_at) / Fold change (Aza/veh), VPS36 (ProbeSet 11739960_a_at) / Fold change (ACY-1035/veh), VPS36 (ProbeSet 11739960_a_at) / RFU SYPL1 (11715823_x_at) / Fold change /veh SYPL1 (11715823_x_at) / RFU IGFBP7 (11715501_s_at) / Fold change /veh IGFBP7 (11715501_s_at) / RFU REEP3 (11722064_at) / Fold change /veh REEP3 (11722064_at) / RFU IGLL1 (11728026_x_at) / Fold change /veh IGLL1 (11728026_x_at): dose or concentration left out as unconfirmed. The settings on record: ProbeSet 11733176_x_at; LIST B. The assay is classed as cell-based, human.

Molecules are shown by their SMILES.

`Nc1ncn([C@@H]2O[C@H](CO)[C@@H](O)[C@H]2O)c(=O)n1` [azacitidine]: the “Fold change vs veh, ZNF507” value was found to be 0.97.
